The source of these data is ChEMBL document CHEMBL4184266, “Bacicyclin, a new antibacterial cyclic hexapeptide from Bacillus sp. strain BC028 isolated from Mytilus edulis” (Bioorg Med Chem Lett, 2018).

The nature of data set [1]: Cytotoxicity against mouse J774.1 cells incubated for 24 hrs and measured 48 and 72 hrs post dye addition by Alamar blue dye based assay. Type of data set: cell-based. (Resazurin is reduced to fluorescent resorufin, in cell work by metabolically active cells.)
Another data set deals with Enterococcus faecium. Kind of data set: Antibacterial activity against Enterococcus faecium 6413 assessed as inhibition of bacterial growth incubated for 18 hrs by […]. It counts as functional, organism-based. On the technique in general: In an ELISA, binding on a coated surface is turned into a signal by an enzyme label.
The test system of a further data set is Escherichia coli. Put plainly: Antibacterial activity against Escherichia coli 536 assessed as inhibition of bacterial growth incubated for 18 hrs by […]. Type of data set: functional, organism-based.
In data set [2] the test system is Staphylococcus epidermidis. Kind of data set: Antibacterial activity against Staphylococcus epidermidis RP62A assessed as inhibition of bacterial growth incubated for 18 hrs by […]. Type of data set: functional, organism-based.
A further data set concerns Pseudomonas aeruginosa. Put plainly: Antibacterial activity against Pseudomonas aeruginosa isolate number 3 assessed as inhibition of bacterial growth incubated for 18 hrs by […]. It counts as functional, organism-based.
In another data set the test system is Enterococcus faecalis. Put plainly: Antibacterial activity against Enterococcus faecalis JH212 assessed as inhibition of bacterial growth incubated for 18 hrs by […]. Type of data set: functional. As to conditions: JH212, 18 h.
The test system of another data set is Staphylococcus aureus. Kind of data set: Antibacterial activity against Staphylococcus aureus NCTC 8325 assessed as inhibition of bacterial growth incubated for 18 hrs by […]. It counts as functional. As to conditions: NCTC 8325, 18 h.

Converted amounts (≈) assume the structure as drawn. The source made the active and inactive calls. The calls are words filed in the database; no cut-off is given here.

For orientation: CC50 means the concentration that lowers cell viability or growth by half. In data set [1], `CC[C@H](C)[C@@H]1NC(=O)[C@H](C(C)C)NC(=O)[C@H](CC(C)C)NC(=O)CNC(=O)[C@@H](Cc2ccccc2)NC(=O)[C@@H](C)NC1=O` [listing 1 of 2 here] returned a CC50 at 24 h above 200 µM.

In the case of `CC[C@H](C)[C@@H]1NC(=O)[C@@H](C)NC(=O)[C@@H](Cc2ccccc2)NC(=O)CNC(=O)[C@H](CC(C)C)NC(=O)[C@H](C(C)C)NC1=O`, the “growth inhibition (GI)” value (in the data set with Enterococcus faecium; with Escherichia coli; in data set [2]; in the data set on Pseudomonas aeruginosa) was “inactive” in each case.

A word on the MIC: it is the lowest concentration that inhibits growth of the organism. As for `CN[C@@H]1[C@H](O[C@H]2[C@H](O[C@H]3[C@H](O)[C@@H](O)[C@H](N=C(N)N)[C@@H](O)[C@@H]3N=C(N)N)O[C@@H](C)[C@]2(O)C=O)O[C@@H](CO)[C@H](O)[C@H]1O` [STREPTOMYCIN], the MIC with Enterococcus faecalis was determined as 5.24 µM (≈ 3.05 µg/mL); with Staphylococcus aureus, 2.09 µM (≈ 1.22 µg/mL).

In the case of `CC[C@H](C)[C@@H]1NC(=O)[C@H](C(C)C)NC(=O)[C@H](CC(C)C)NC(=O)CNC(=O)[C@@H](Cc2ccccc2)NC(=O)[C@@H](C)NC1=O` [listing 2 of 2 here], the MIC was determined as 8 µM (≈ 4.81 µg/mL) with Enterococcus faecalis and 12 µM (≈ 7.21 µg/mL) in the data set with Staphylococcus aureus.
